We go through three molecules from patent publication US9902938B2, “Method for inducing exocrine pancreatic cells” (Kyoto University, priority 2012, dated 2018).

Assay [1] deals with PDX1-positive pancreatic precursor cells. Briefly: Induction of exocrine pancreatic cells by modified protocol (Example 2, immunostaining with anti-Amylase). It is filed as cell-based. The note with it: Stage 3 culture 2 days, 1 μM CHAP108 with 300 nM ILV; human ES cells (KhES3); DMSO negative control 2.8%. The procedure:
ES cells (KhES3) dispersed into single cells were induced to differentiate into exocrine pancreatic cells according to modified protocols shown in FIG. 1. Specifically, the following 5 steps were carried out.
(Stage 1) ES cells were suspended in a RPMI1640 medium containing 2% B27 and Penicillin/Streptomycin, and then seeded in a matrigel-coated 24-well plate at 250,000/well. 100 ng/mL Activin A and 1 μM CHIR99021 were added to adjust the amount of the medium to be 0.5 mL/well, and then cells were cultured for 4 days.
(Stage 2-1) The medium was substituted with DMEM containing 50 ng/ml […], 0.25 μM KAAD (3-Keto-N-(aminoethyl-aminocaproyl-dihydro-cinnamoyl))-cyclopamine, 1% L-Glutamin, 2% B27, 50 mU/L Penicillin and 50 μg/L Streptomycin, and then cells were cultured for 1 day.
(Stage 2-2) The medium was substituted with DMEM containing 2 μM retinoic acid, 50 ng/ml FGF10, 0.25 μM KAAD-cyclopamine, 1% L-Glutamin, 2% B27, 50 mU/L Penicillin and […] Streptomycin, and then cells were cultured for 2 days.
(Stage 2-3) The medium was substituted with DMEM containing 50 ng/ml FGF10, 300 nM (−)-indolactam V (ILV), 1% L-Glutamin, 2% B27, 50 mU/L Penicillin and 50 μg/L Streptomycin, and then cells were cultured for 2 days. […]

Assay [2] shares this test system. As to the kind of experiment: Induction of exocrine pancreatic cells from human ES cell-derived pancreatic precursor cells (Example 1, anti-amylase immunostaining). It is filed as cell-based. The note with it: human ES cells (KhES3). The procedure:
Human ES cells (KhES3) received from Kyoto University (Kyoto, Japan) were cultured by a conventional method (Mori H, et al., Biochem Biophys Res Commun. 2006, 345, 926-932). ES cells were cultured on 6-cm dishes to 80%-90% confluency, and then 1 mL of Accutase™ was added to disperse ES cells into single cells.
ES cells dispersed into single cells were induced to differentiate into exocrine pancreatic cells according to protocols shown in FIG. 1. Specifically, the following 5 steps were carried out.
(Stage 1) ES cells were suspended in a RPMI1640 medium containing 2% B27 and Penicillin/Streptomycin, and then seeded in a matrigel-coated 24-well plate at 250,000/well. 100 ng/ml, Activin A and 1 μM CHIR99021 were added to adjust the amount of the medium to be 0.5 mL/well, and then cells were cultured for […].
(Stage 2-1) The medium was substituted with DMEM containing 50 ng/ml FGF10, 0.25 μM KAAD (3-Keto-N-(aminoethyl-aminocaproyl-dihydro-cinnamoyl))-cyclopamine, 1% L-Glutamin, 2% B27, 50 mU/L Penicillin and 50 μg/L Streptomycin, and then cells were cultured for 1 day.
(Stage 2-2) The medium was substituted with DMEM containing 2 μM retinoic acid, 50 ng/ml FGF10, 0.25 μM KAAD-cyclopamine, 1% L-Glutamin, 2% B27, 50 mU/L Penicillin and 50 μg/L Streptomycin, and then cells were cultured for 2 days.
(Stage 2-3) The medium was substituted with DMEM containing 50 ng/ml FGF10, 300 nM (−)-indolactam V (ILV), 1% L-Glutamin, 2% B27, 50 mU/L Penicillin and 50 μg/L Streptomycin, and then cells were cultured for 4 days.
(Stage 3) The medium was substituted with DMEM containing 1 μM CHAP108 (formula 10), 300 nM ILV, 1% L-Glutamin, 2% B27, 50 mU/L Penicillin and 50 μg/L. Streptomycin, and then cells were cultured for 4 days or 8 days.
The result obtained by culturing cells for 12 days in Stage 3 with the use of the ligand protein for a Notch signal, 0.5 mg/ml hDLL4 or 0.5 mg/ml hJAG1, instead of CHAP108 was compared with the result obtained by culturing cells for 4 days in Stage 3 with the use of CHAP108. […]

The mark [3] stands for this setting: Stage 3 culture 12 days, 0.5 mg/ml ligand protein instead of CHAP108.

Regarding `CCC(C)C1NC(=O)C(Cc2ccc(OC)cc2)NC(=O)C(CCCCCN(O)C=O)NC(=O)C2CCCCN2C1=O` (stereo not shown) [CHAP108], in assay [1], the Amylase positive rate is listed as 56.3%. Further, the “efficiency for inducing exocrine pancreatic cells” value (from here on “efficiency”) in assay [2] (Stage 3 culture 4 days, 1 μM CHAP108 with 300 nM ILV) is on record as 21.4%.

Turning to “hDLL4: ligand protein for a Notch signal receptor, member of the Delta-like family”, in assay [2] (setting [3]), the “efficiency” value is listed as 28.8%.

As to “hJAG1: ligand protein for a Notch signal receptor, member of the Jagged family”, the “efficiency” value in assay [2] (setting [3]) was 27.0%.
